The source of these data is patent US9730937B2, “RAF kinase modulator compounds and methods of use thereof” (AMBIT BIOSCIENCES CORPORATION, priority 2008, dated 2017).

One test deals with wild type BRAF kinase (Homo sapiens (Human), UniProt P15056). The note with it: read-out: BRAF WT Kd, class symbols.
For a further test, the target named is RAF kinases (Homo sapiens (Human), UniProt P04049). Conditions: read-out: RAF1 Kd, class symbols.
Test [1] relates to panel of 290 distinct kinases (321 in the larger panel), excluding mutant variants. Conditions: kinase selectivity score, class symbols.
For a further test, the target named is mutant BRAF kinase (Homo sapiens (Human), UniProt P15056, V600E). Conditions: read-out: BRAF V600E Kd, class symbols.
Sequence of mutant BRAF kinase (P15056 whole entry V600E): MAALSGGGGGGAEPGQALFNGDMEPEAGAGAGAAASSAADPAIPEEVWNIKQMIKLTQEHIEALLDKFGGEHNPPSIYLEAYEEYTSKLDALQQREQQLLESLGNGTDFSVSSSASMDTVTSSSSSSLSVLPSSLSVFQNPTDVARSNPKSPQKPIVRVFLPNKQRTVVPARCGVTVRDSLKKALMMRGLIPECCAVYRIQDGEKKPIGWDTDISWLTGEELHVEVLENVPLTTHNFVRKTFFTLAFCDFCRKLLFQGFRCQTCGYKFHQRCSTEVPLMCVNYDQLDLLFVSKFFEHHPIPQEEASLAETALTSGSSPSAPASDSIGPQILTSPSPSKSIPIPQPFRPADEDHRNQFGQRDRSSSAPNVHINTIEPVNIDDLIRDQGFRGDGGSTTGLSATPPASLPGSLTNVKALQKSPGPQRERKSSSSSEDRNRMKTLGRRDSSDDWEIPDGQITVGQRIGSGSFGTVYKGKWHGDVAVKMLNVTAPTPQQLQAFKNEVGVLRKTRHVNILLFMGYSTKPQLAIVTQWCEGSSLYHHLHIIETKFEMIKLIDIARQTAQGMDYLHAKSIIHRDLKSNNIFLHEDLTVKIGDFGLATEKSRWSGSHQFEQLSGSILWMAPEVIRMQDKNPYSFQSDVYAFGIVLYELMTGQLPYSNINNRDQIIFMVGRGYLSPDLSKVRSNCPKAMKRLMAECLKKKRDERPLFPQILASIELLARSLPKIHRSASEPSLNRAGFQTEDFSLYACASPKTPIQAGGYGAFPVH
The mark [2] stands for this setting: value marked * (larger kinase panel).

Counter-ions that a name gives are not always drawn. Like-named read-outs stand apart in the source and are kept apart here. Where only a bound is given, the exact number is not on record here.

Sequence of wild type BRAF kinase (P15056 whole entry): as the sequence (P15056 whole entry V600E) above, with E600V counted along it
Sequence of RAF kinases (P04049 whole entry): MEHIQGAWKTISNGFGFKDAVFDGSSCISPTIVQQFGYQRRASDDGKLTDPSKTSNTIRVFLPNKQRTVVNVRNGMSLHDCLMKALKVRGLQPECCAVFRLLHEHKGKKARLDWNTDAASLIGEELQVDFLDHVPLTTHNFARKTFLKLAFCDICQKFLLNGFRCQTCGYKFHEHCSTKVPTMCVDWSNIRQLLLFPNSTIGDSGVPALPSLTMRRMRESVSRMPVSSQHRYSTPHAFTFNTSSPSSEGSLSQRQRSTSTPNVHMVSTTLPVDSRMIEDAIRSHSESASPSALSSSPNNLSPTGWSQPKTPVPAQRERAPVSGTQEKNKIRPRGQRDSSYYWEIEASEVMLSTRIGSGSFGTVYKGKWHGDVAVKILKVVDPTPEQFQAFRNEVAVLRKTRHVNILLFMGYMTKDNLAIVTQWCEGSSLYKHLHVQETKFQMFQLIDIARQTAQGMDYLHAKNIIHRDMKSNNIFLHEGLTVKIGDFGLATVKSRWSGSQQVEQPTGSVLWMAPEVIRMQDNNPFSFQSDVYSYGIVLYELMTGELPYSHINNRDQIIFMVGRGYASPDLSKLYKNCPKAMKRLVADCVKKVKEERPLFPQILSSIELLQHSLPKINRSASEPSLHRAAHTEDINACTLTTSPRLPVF

On to `COc1cc2ncnc(Sc3cccc(NC(=O)Nc4ccc(Cl)c(C(F)(F)F)c4)c3)c2cc1OC` [Ex 186, 1-(4-chloro-3-(trifluoromethyl)phenyl)-3-(3-(6,7-dimethoxyquinazolin-4-ylthio)phenyl)urea], for which the Kd on wild type BRAF kinase and at RAF kinases was above 1000 nM in each case. In addition, the S35 result in test [1] (setting [2]) is reported as “B* (0.10 < B ≦ 0.20)”.

Take `COc1cc2ncnc(Oc3cc(NC(=O)Nc4cc(C(C)(C)C)on4)ccc3F)c2cc1OC` [Ex 9, 1-(5-tert-butylisoxazol-3-yl)-3-(3-(6,7-dimethoxyquinazolin-4-yloxy)-4-fluorophenyl)urea]: the dissociation constant (Kd) is below 250 nM on mutant BRAF kinase and above 1000 nM on wild type BRAF kinase. Besides, the S35 result in test [1] (290 distinct kinases) is “D (D > 0.40)”.

In the case of `COc1cc2ncnc(Sc3cccc(NC(=O)Nc4cc(C(F)(F)F)nn4-c4ccc(F)cc4)c3)c2cc1OC` [Ex 198, 1-[3-(6,7-dimethoxyquinazolin-4-ylthio)phenyl]-3-[1-(4-fluorophenyl)-3-(trifluoromethyl)-1H-pyrazol-5-yl]urea], the Kd at wild type BRAF kinase and at RAF kinases was above 1000 nM each time. Besides, the S35 result in test [1] (setting [2]) is on record as “C* (0.20 < C ≦ 0.40)”.

`COc1ccc2c(Sc3cccc(NC(=O)Nc4cc(C(C)(C)C)on4)c3)ncnc2c1` [Ex 48, 1-(5-tert-butylisoxazol-3-yl)-3-(3-(7-methoxyquinazolin-4-ylthio)phenyl)urea]: the Kd at wild type BRAF kinase and at RAF kinases was above 1000 nM in each case. Moreover, the S35 result in test [1] (290 distinct kinases) is given as “C (0.20 < C ≦ 0.40)”.

Consider `COCCOc1ccc2ncnc(Oc3cccc(NC(=O)Nc4cc(C(C)(C)C)on4)c3)c2c1` [Ex 40, 1-(5-tert-butylisoxazol-3-yl)-3-(3-(6-(2-methoxyethoxy)quinazolin-4-yloxy)phenyl)urea], for which the results for the equilibrium dissociation constant (Kd) on mutant BRAF kinase and at wild type BRAF kinase were below 250 nM and above 1000 nM, respectively. Further, the S35 result in test [1] (290 distinct kinases) is recorded as “C (0.20 < C ≦ 0.40)”.

For `COc1cc2ncnc(Oc3cccc(NC(=O)Nc4cc(CN5CCOCC5)cc(C(F)(F)F)c4)c3)c2cc1OC` [Ex 151, 1-(3-(6,7-dimethoxyquinazolin-4-yloxy)phenyl)-3-(3-(morpholinomethyl)-5-(trifluoromethyl)phenyl)urea], the Kd at mutant BRAF kinase is below 250 nM; at wild type BRAF kinase, above 1000 nM. Also, in test [1] (setting [2]), the S35 result is given as “C* (0.20 < C ≦ 0.40)”.

Regarding `COc1cc2ncnc(Sc3cccc(NC(=O)Nc4cc(C(C)(C)C)on4)c3)c2cc1OCCN1CCCCC1` [Ex 65, 1-(5-tert-butylisoxazol-3-yl)-3-(3-(7-methoxy-6-(2-(piperidin-1-yl)ethoxy)quinazolin-4-ylthio)phenyl)urea], the Kd on mutant BRAF kinase was below 250 nM; at wild type BRAF kinase, above 1000 nM. Moreover, in test [1] (290 distinct kinases), the S35 entry is reported as “C (0.20 < C ≦ 0.40)”.

For the compound `COc1cc2c(Oc3cccc(NC(=O)Nc4cc(C(C)(C)C)on4)c3)ncnc2cc1OCCCN1CCN(CCO)CC1` [Ex 30, 1-(5-tert-butylisoxazol-3-yl)-3-(3-(7-(3-(4-(2-hydroxyethyl)piperazin-1-yl)propoxy)-6-methoxyquinazolin-4-yloxy)phenyl)urea], the Kd on mutant BRAF kinase and at wild type BRAF kinase was below 250 nM in each case. For the same compound, in test [1] (290 distinct kinases), the S35 entry is listed as “D (D > 0.40)”.

As to `CCOc1cc2ncnc(Sc3cccc(NC(=O)Nc4cc(C(C)(C)C)on4)c3)c2cc1OCC` [Ex 51, 1-(5-tert-butylisoxazol-3-yl)-3-[3-(6,7-diethoxyquinazolin-4-ylthio)phenyl]urea], the Kd on wild type BRAF kinase and at RAF kinases was above 1000 nM throughout. Moreover, the S35 result in test [1] (290 distinct kinases) was “C (0.20 < C ≦ 0.40)”.

Regarding `COc1cc2ncnc(Oc3cccc(NC(=O)Nc4cc(C(F)(F)F)nn4-c4ccc(C)cc4)c3)c2cc1OC` [Ex 172, 1-[3-(6,7-dimethoxyquinazolin-4-yloxy)phenyl]-3-[1-p-tolyl-3-(trifluoromethyl)-1H-pyrazol-5-yl]urea], the dissociation constant Kd on wild type BRAF kinase and on RAF kinases was above 1000 nM each time. Moreover, the S35 result in test [1] (setting [2]) was “C* (0.20 < C ≦ 0.40)”.

With `COc1cc2ncnc(Oc3cccc(NC(=O)Nc4cc(C(=O)N5CCOCC5)cc(C(F)(F)F)c4)c3)c2cc1OC` [Ex 149, 1-(3-(6,7-dimethoxyquinazolin-4-yloxy)phenyl)-3-(3-(morpholine-4-carbonyl)-5-(trifluoromethyl)phenyl)urea], the Kd at wild type BRAF kinase and on RAF kinases was above 1000 nM throughout. In addition, the S35 entry in test [1] (setting [2]) was “B* (0.10 < B ≦ 0.20)”.

Take `COCCOc1cc2ncnc(Oc3cccc(NC(=O)Nc4cc(C(=O)N5CCOCC5)cc(C(F)(F)F)c4)c3)c2cc1OC` [Ex 205, 1-(3-(6-methoxy-7-(2-methoxyethoxy)quinazolin-4-yloxy)phenyl)-3-(3-(morpholine-4-carbonyl)-5-(trifluoromethyl)phenyl)urea]: the equilibrium dissociation constant (Kd) on wild type BRAF kinase and on RAF kinases was above 1000 nM each time. Also, the S35 entry in test [1] (setting [2]) was “C* (0.20 < C ≦ 0.40)”.

Take `COCCOc1cc(NC(=O)Nc2cccc(Sc3ncnc4cc(OC)c(OC)cc34)c2)ccc1C(F)(F)F` [Ex 148, 1-(3-(6,7-dimethoxyquinazolin-4-ylthio)phenyl)-3-(3-(2-methoxyethoxy)-4-(trifluoromethyl)phenyl)urea]: the Kd at wild type BRAF kinase and on RAF kinases was above 1000 nM each time. For the same compound, the S35 entry in test [1] (setting [2]) is given as “B* (0.10 < B ≦ 0.20)”.

Turning to `COc1cc2ncnc(Sc3cccc(NC(=O)Nc4ccc(C(F)(F)F)c(OC)c4)c3)c2cc1OC` [Ex 190, 1-(3-(6,7-dimethoxyquinazolin-4-ylthio)phenyl)-3-(3-methoxy-4-(trifluoromethyl)phenyl)urea], the Kd on wild type BRAF kinase and on RAF kinases was above 1000 nM throughout. The S35 result in test [1] (setting [2]) is listed as “B* (0.10 < B ≦ 0.20)”.

For `COc1cc2ncnc(Oc3cccc(NC(=O)Nc4cc(C(F)(F)F)nn4-c4ccccc4)c3)c2cc1OC` [Ex 161, 1-[3-(6,7-dimethoxyquinazolin-4-yloxy)phenyl]-3-[1-phenyl-3-(trifluoromethyl)-1H-pyrazol-5-yl]urea], the Kd at wild type BRAF kinase and at RAF kinases was above 1000 nM throughout. The S35 result in test [1] (setting [2]) is reported as “C* (0.20 < C ≦ 0.40)”.

`CCOc1cc2c(Oc3cccc(NC(=O)Nc4cc(C(C)(C)C)on4)c3)ncnc2cc1OC` [Ex 11, 1-(5-tert-butylisoxazol-3-yl)-3-(3-(6-ethoxy-7-methoxyquinazolin-4-yloxy)phenyl)urea]: the Kd on mutant BRAF kinase was below 250 nM; at wild type BRAF kinase it was above 1000 nM. For the same compound, the S35 result in test [1] (290 distinct kinases) is reported as “C (0.20 < C ≦ 0.40)”.

On to `COc1cc2ncnc(Oc3cccc(NC(=O)Nc4cc(C(C)(C)C)on4)c3)c2cc1OC` [Ex 1, 1-(5-tert-butylisoxazol-3-yl)-3-(3-(6,7-dimethoxyquinazolin-4-yloxy)phenyl)urea], for which the Kd on mutant BRAF kinase was below 250 nM; on wild type BRAF kinase, above 1000 nM. The S35 entry in test [1] (290 distinct kinases) is listed as “C (0.20 < C ≦ 0.40)”.

Turning to `COCCOc1cc(NC(=O)Nc2cccc(Oc3ncnc4cc(OC)c(OC)cc34)c2)cc(C(F)(F)F)c1` [Ex 129, 1-(3-(6,7-dimethoxyquinazolin-4-yloxy)phenyl)-3-(3-(2-methoxyethoxy)-5-(trifluoromethyl)phenyl)urea], the Kd on wild type BRAF kinase was above 1000 nM. Further, the S35 result in test [1] (290 distinct kinases) was “B (0.10 < B ≦ 0.20)”.

Turning to `COc1cc2ncnc(Oc3cccc(NC(=O)Nc4cc(C(C)(C)C)nn4C)c3)c2cc1OC` [Ex 158, 1-(3-tert-butyl-1-methyl-1H-pyrazol-5-yl)-3-(3-(6,7-dimethoxyquinazolin-4-yloxy)phenyl)urea], the dissociation constant Kd on mutant BRAF kinase is below 250 nM; on wild type BRAF kinase, above 1000 nM. Moreover, the S35 result in test [1] (setting [2]) is given as “C* (0.20 < C ≦ 0.40)”.

With `CCOc1cc2ncnc(Oc3cccc(NC(=O)Nc4cc(C(C)(C)C)on4)c3)c2cc1OC` [Ex 6, 1-(5-tert-butylisoxazol-3-yl)-3-[3-(7-ethoxy-6-methoxyquinazolin-4-yloxy)phenyl]urea hydrochloride], the dissociation constant Kd on mutant BRAF kinase was below 250 nM; at wild type BRAF kinase, above 1000 nM. Moreover, the S35 entry in test [1] (290 distinct kinases) was “D (D > 0.40)”.

Take `COc1cc2ncnc(Sc3cccc(NC(=O)Nc4ccc(C(C)(C)C)cc4)c3)c2cc1OC` [Ex 174, 1-(4-tert-butylphenyl)-3-(3-(6,7-dimethoxyquinazolin-4-ylthio)phenyl)urea]: at wild type BRAF kinase, the Kd is above 1000 nM. Besides, in test [1] (290 distinct kinases), the S35 entry was “C (0.20 < C ≦ 0.40)”.

For the compound `COCCOc1ccc2ncnc(Sc3cccc(NC(=O)Nc4cc(C(C)(C)C)on4)c3)c2c1` [Ex 87, 1-(5-tert-butylisoxazol-3-yl)-3-(3-(6-(2-methoxyethoxy)quinazolin-4-ylthio)phenyl)urea], on wild type BRAF kinase, the Kd was above 1000 nM. The S35 entry in test [1] (290 distinct kinases) was “C (0.20 < C ≦ 0.40)”.

As for `COc1cc2ncnc(Oc3cccc(NC(=O)Nc4cc(C(F)(F)F)ccc4Cl)c3)c2cc1OC` [Ex 142, 1-(2-chloro-5-(trifluoromethyl)phenyl)-3-(3-(6,7-dimethoxyquinazolin-4-yloxy)phenyl)urea], at wild type BRAF kinase, the Kd was above 1000 nM. Besides, the S35 entry in test [1] (290 distinct kinases) was “B (0.10 < B ≦ 0.20)”.

For the compound `COc1cc2c(Sc3cccc(NC(=O)Nc4cc(C(C)(C)C)on4)c3)ncnc2cc1OCCN1CCC(CO)CC1` [Ex 86, 1-(5-tert-butylisoxazol-3-yl)-3-(3-(7-(2-(4-(hydroxymethyl)piperidin-1-yl)ethoxy)-6-methoxyquinazolin-4-ylthio)phenyl)urea], the Kd at wild type BRAF kinase was above 1000 nM. Further, the S35 entry in test [1] (290 distinct kinases) is listed as “C (0.20 < C ≦ 0.40)”.

For the compound `COc1cc2ncnc(Sc3cccc(NC(=O)Nc4ccc(C(F)(F)F)c(F)c4)c3)c2cc1OC` [Ex 188, 1-(3-(6,7-dimethoxyquinazolin-4-ylthio)phenyl)-3-(3-fluoro-4-(trifluoromethyl)phenyl)urea], the Kd on wild type BRAF kinase was above 1000 nM. Further, the S35 result in test [1] (setting [2]) is given as “B* (0.10 < B ≦ 0.20)”.

On to `COc1cc2ncnc(Oc3cccc(NC(=O)Nc4cc(C5CCOCC5)no4)c3)c2cc1OC` [Ex 123, 1-(3-(6,7-dimethoxyquinazolin-4-yloxy)phenyl)-3-(3-(tetrahydro-2H-pyran-4-yl)isoxazol-5-yl)urea], for which the dissociation constant Kd on wild type BRAF kinase was above 1000 nM. In addition, the S35 entry in test [1] (290 distinct kinases) was “B (0.10 < B ≦ 0.20)”.

A word on the Kd: it is the equilibrium constant for the complex coming apart.
